Experimental data taken from patent US20260159536A1, “AKR1C3-ACTIVATED DNA ALKYLATING AGENT, AND MEDICAL APPLICATION THEREOF” (ASCENTAWITS PHARMACEUTICALS, LTD., priority 2021, published 2026).

How the values were obtained:
[1] = test system: HuPrime model LI6643 human liver cancer; experiment: In vivo pharmacodynamics, liver cancer LI6643 PDX model (Compound A, Sorafenib; section 4.8); design: species or system BALB/c nude mice; conditions: 1.25, 2.5, 5, 10 mg/kg
Description: Experiment Instruction: BALB/c nude mice were subcutaneously inoculated with HuPrime® model LI6643 tumor blocks to establish a subcutaneous transplantation tumor model of human liver cancer. […] The efficacy was evaluated according to the relative tumor inhibition rate TGI (%), and the safety was evaluated according to the change in body weight and the death of the animals.

[2] = test system: human liver cancer HepG2 cells; experiment: In vivo pharmacodynamics, liver cancer HepG2 CDX model; design: species or system BALB/c nude mice; conditions: for Tumor volume (x ± S): in mm³ (unit assumed)
Description: Experiment Instruction: BALB/c nude mice were subcutaneously inoculated with human liver cancer HepG2 cells to establish a subcutaneous transplantation tumor model of human liver cancer. […] The efficacy was evaluated according to the relative tumor inhibition rate TGI (%), and the safety was evaluated according to the change in body weight and the death of the animals.

[3] = 1.25 mg/kg, QDx5, 2 days off, 2 weeks off, QDx5, i.p., Day 53
[4] = 2.5 mg/kg, QDx5, 2 days off, 2 weeks off, QDx5, i.p., Day 53
[5] = 5 mg/kg, QDx5, 2 days off, 2 weeks off, QDx5, i.p., Day 53
[6] = 5 mg/kg, QWx2, 1 week off, QWx2, i.v., Day 53
[7] = 10 mg/kg, QWx2, 1 week off, QWx2, i.v., Day 53

O=[N+]([O-])c1ccc(C(OP(=O)(N2CC2)N2CC2)C(F)(F)F)cc1Oc1ccc(-c2ccc(F)cc2)c(F)c1 (racemic) [Compound A]
toxic side effects (body weight change) [1]: without toxic side effects | Tumor volume ([2]; 1.25 mg/kg i.p., Day 19): 189.54 mm^3 | Tumor volume ([2]; 1.25 mg/kg i.p., Day 22): 315.41 mm^3 | Tumor volume ([2]; 1.25 mg/kg i.p., Day 24): 351.74 mm^3 | Tumor volume ([2]; 1.25 mg/kg i.p., Day 27): 383.10 mm^3 | Tumor volume ([2]; 1.25 mg/kg i.p., Day 31): 366.64 mm^3 | Tumor volume ([2]; 1.25 mg/kg i.p., Day 36): 416.27 mm^3 | Tumor volume ([2]; 1.25 mg/kg i.p., Day 39): 586.80 mm^3 | Tumor volume ([2]; 1.25 mg/kg i.p., Day 42): 782.39 mm^3 | Tumor volume ([2]; 1.25 mg/kg i.p., Day 46): 886.97 mm^3 | Tumor volume ([2]; 1.25 mg/kg i.p., Day 49): 975.41 mm^3 | Tumor volume ([2]; 1.25 mg/kg i.p., Day 53): 1066.23 mm^3 | Relative tumor volume (x ± S) [2, 3]: 5.57 ± 1.26 | T/C (%) [2, 3]: 47.03% | TGI (%) [2, 3]: 52.97% | Tumor volume (x ± S) [2, 3]: 1066.23 ± 252.18 | Tumor volume ([2]; 2.5 mg/kg i.p., Day 19): 189.31 mm^3 | Tumor volume ([2]; 2.5 mg/kg i.p., Day 22): 292.03 mm^3 | Tumor volume ([2]; 2.5 mg/kg i.p., Day 24): 360.14 mm^3 | Tumor volume ([2]; 2.5 mg/kg i.p., Day 27): 373.23 mm^3 | Tumor volume ([2]; 2.5 mg/kg i.p., Day 31): 405.67 mm^3 | Tumor volume ([2]; 2.5 mg/kg i.p., Day 36): 392.90 mm^3 | Tumor volume ([2]; 2.5 mg/kg i.p., Day 39): 342.04 mm^3 | Tumor volume ([2]; 2.5 mg/kg i.p., Day 42): 399.84 mm^3 | Tumor volume ([2]; 2.5 mg/kg i.p., Day 46): 417.54 mm^3 | Tumor volume ([2]; 2.5 mg/kg i.p., Day 49): 456.60 mm^3 | Tumor volume ([2]; 2.5 mg/kg i.p., Day 53): 417.76 mm^3 | Relative tumor volume (x ± S) [2, 4]: 2.19 ± 0.52 | T/C (%) [2, 4]: 18.46% | TGI (%) [2, 4]: 81.54% | Tumor volume (x ± S) [2, 4]: 417.76 ± 105.16 | euthanasia owing to BWL>20% ([2]; 5 mg/kg QDx5, 2 days off, 2 weeks off, QDx5, i.p. (Group 7)): one mouse was euthanized | death ([2]; 5 mg/kg QWx2, 1 week off, QWx2, i.v. (Group 3)): one mouse in this group suffered death | Tumor volume ([2]; 5 mg/kg i.p., Day 19): 189.64 mm^3 | Tumor volume ([2]; 5 mg/kg i.p., Day 22): 259.29 mm^3 | Tumor volume ([2]; 5 mg/kg i.p., Day 24): 280.24 mm^3 | Tumor volume ([2]; 5 mg/kg i.p., Day 27): 286.22 mm^3 | Tumor volume ([2]; 5 mg/kg i.p., Day 31): 290.75 mm^3 | Tumor volume ([2]; 5 mg/kg i.p., Day 36): 293.88 mm^3 | Tumor volume ([2]; 5 mg/kg i.p., Day 39): 247.49 mm^3 | Tumor volume ([2]; 5 mg/kg i.p., Day 42): 224.58 mm^3 | Tumor volume ([2]; 5 mg/kg i.p., Day 46): 215.32 mm^3 | Tumor volume ([2]; 5 mg/kg i.p., Day 49): 234.89 mm^3 | Tumor volume ([2]; 5 mg/kg i.p., Day 53): 189.84 mm^3 | Tumor volume ([2]; 5 mg/kg i.v., Day 19): 191.48 mm^3 | Tumor volume ([2]; 5 mg/kg i.v., Day 22): 315.19 mm^3 | Tumor volume ([2]; 5 mg/kg i.v., Day 24): 360.12 mm^3 | Tumor volume ([2]; 5 mg/kg i.v., Day 27): 390.21 mm^3 | Tumor volume ([2]; 5 mg/kg i.v., Day 31): 373.82 mm^3 | Tumor volume ([2]; 5 mg/kg i.v., Day 36): 314.44 mm^3 | Tumor volume ([2]; 5 mg/kg i.v., Day 39): 283.08 mm^3 | Tumor volume ([2]; 5 mg/kg i.v., Day 42): 276.88 mm^3 | Tumor volume ([2]; 5 mg/kg i.v., Day 46): 233.11 mm^3 | Tumor volume ([2]; 5 mg/kg i.v., Day 49): 145.58 mm^3 | Tumor volume ([2]; 5 mg/kg i.v., Day 53): 136.44 mm^3 | Relative tumor volume (x ± S) [2, 5]: 0.99 ± 0.38 | T/C (%) [2, 5]: 8.33% | TGI (%) [2, 5]: 91.67% | Tumor volume (x ± S) [2, 5]: 189.84 ± 72.81 | Relative tumor volume (x ± S) [2, 6]: 0.70 ± 0.34 | T/C (%) [2, 6]: 5.92% | TGI (%) [2, 6]: 94.08% | Tumor volume (x ± S) [2, 6]: 136.44 ± 66.47 | weight loss or death ([2]; 10 mg/kg i.v. (Group 4) and 2.5 mg/kg i.p. (Group 6)): did not cause severe weight loss or death | Tumor volume ([2]; 10 mg/kg i.v., Day 19): 191.97 mm^3 | Tumor volume ([2]; 10 mg/kg i.v., Day 22): 314.32 mm^3 | Tumor volume ([2]; 10 mg/kg i.v., Day 24): 375.81 mm^3 | Tumor volume ([2]; 10 mg/kg i.v., Day 27): 427.75 mm^3 | Tumor volume ([2]; 10 mg/kg i.v., Day 31): 386.68 mm^3 | Tumor volume ([2]; 10 mg/kg i.v., Day 36): 347.85 mm^3 | Tumor volume ([2]; 10 mg/kg i.v., Day 39): 312.31 mm^3 | Tumor volume ([2]; 10 mg/kg i.v., Day 42): 252.78 mm^3 | Tumor volume ([2]; 10 mg/kg i.v., Day 46): 197.45 mm^3 | Tumor volume ([2]; 10 mg/kg i.v., Day 49): 142.21 mm^3 | Tumor volume ([2]; 10 mg/kg i.v., Day 53): 88.20 mm^3 | Relative tumor volume (x ± S) [2, 7]: 0.45 ± 0.15 | T/C (%) [2, 7]: 3.83% | TGI (%) [2, 7]: 96.17% | Tumor volume (x ± S) [2, 7]: 88.20 ± 29.95 | complete cure ([2]; one mouse in each of Groups 3, 4, 7): completely cured
